Assay results as given in US9113629B2, “4-amino-6-(4-substituted-phenyl)-picolinates and 6-amino-2-(4-substituted-phenyl)-pyrimidine-4-carboxylates and their use as herbicides” (DOW AGROSCIENCES LLC, priority 2013, dated 2015).
Like-named read-outs stand apart in the source and are kept apart here.

What was measured:
[1] = test system: Key Grass and Sedge Weeds as well as Grass Crops; test: Post-emergent Test II herbicidal activity (Table 6); type: in vivo; conditions: post-emergence, 336 h; for pest or weed control at 70 g/ha: application rate 70 g ai/ha; for pest or weed control at 140 g/ha: application rate 140 g ai/ha
Method in brief: (§1)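 Plants grown in Metro-Mix 360 (pH 6.0–6.8) in a greenhouse (~15 h photoperiod, 23–29 °C day) to first or second true leaf stage, then sprayed with compound in acetone/DMSO/aqueous crop-oil-surfactant carrier at 187 L/ha by track sprayer. Injury visually scored 0–100% versus untreated plants after 14 d.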

[2] = test system: Key Broadleaf Weed and Crop Species; test: Post-emergent Test II herbicidal activity (Table 5); type: in vivo; conditions: post-emergence, 336 h, post-emergent, 14 days after application; for pest or weed control at 70 g/ha: 70 g ai/ha; for pest or weed control at 140 g/ha: 140 g ai/ha
Method in brief: as §1

[3] = Triticum aestivum, TRZSS (wheat), read-out: Visual Growth Reduction (%) 14 Days After Application, TRZSS
[4] = CYPES: yellow nutsedge (Cyperus esculentus), read-out: Visual Growth Reduction (%) 14 Days After Application, CYPES
[5] = DIGSA: crabgrass (Digitaria sanguinalis), read-out: Visual Growth Reduction (%) 14 Days After Application, DIGSA
[6] = ECHCG: barnyardgrass (Echinochloa crus-galli), read-out: Visual Growth Reduction (%) 14 Days After Application, ECHCG
[7] = ORYSA: rice (Oryza sativa), read-out: Visual Growth Reduction (%) 14 Days After Application, ORYSA
[8] = SETFA: giant foxtail (Setaria faberi), read-out: Visual Growth Reduction (%) 14 Days After Application, SETFA
[9] = SORVU: grain sorghum (Sorghum vulgare), read-out: Visual Growth Reduction (%) 14 Days After Application, SORVU
[10] = ZEAMX: maize, corn (Zea mays), read-out: Visual Growth Reduction (%) 14 Days After Application, ZEAMX
[11] = ABUTH: velvetleaf (Abutilon theophrasti), read-out: Visual Growth Reduction (%) 14 Days After Application ABUTH
[12] = AMARE: redroot pigweed (Amaranthus retroflexus), read-out: Visual Growth Reduction (%) 14 Days After Application AMARE
[13] = BRSNN: oilseed-rape, canola (Brassica napus), read-out: Visual Growth Reduction (%) 14 Days After Application BRSNN
[14] = CHEAL: lambsquarters (Chenopodium album), read-out: Visual Growth Reduction (%) 14 Days After Application CHEAL
[15] = EPHHL: wild poinsettia (Euphorbia heterophylla), read-out: Visual Growth Reduction (%) 14 Days After Application EPHHL
[16] = HELAN: sunflower (Helianthus annuus), read-out: Visual Growth Reduction (%) 14 Days After Application HELAN
[17] = VIOTR: wild pansy (Viola tricolor), read-out: Visual Growth Reduction (%) 14 Days After Application VIOTR

Q: For C=Cc1c(N)nc(-c2ccc(C(F)(F)F)c(F)c2)nc1C(=O)OC [Compound 137, Methyl 6-amino-2-(3-fluoro-4-(trifluoromethyl)phenyl)-5-vinylpyrimidine-4-carboxylate], which pest or weed control at 70 g/ha [1, 3] is on record?
A: 0 to 29%

Q: And the pest or weed control at 140 g/ha [1, 3]?
A: 0 to 29%

Q: And the pest or weed control at 70 g/ha [1, 4]?
A: 45 to 59%

Q: What about the pest or weed control at 140 g/ha [1, 4] of the same compound?
A: 45 to 59%

Q: And the pest or weed control at 70 g/ha [1, 5]?
A: 0 to 29%

Q: What about the pest or weed control at 140 g/ha [1, 5] of the same compound?
A: 0 to 29%

Q: What about the pest or weed control at 70 g/ha [1, 6] of the same compound?
A: 0 to 29%

Q: What about the pest or weed control at 140 g/ha [1, 6] of the same compound?
A: 0 to 29%

Q: And the pest or weed control at 70 g/ha [1, 7]?
A: 0 to 29%

Q: What about the pest or weed control at 140 g/ha [1, 7] of the same compound?
A: 0 to 29%

Q: What about the pest or weed control at 70 g/ha [1, 8] of the same compound?
A: 0 to 29%

Q: What about the pest or weed control at 140 g/ha [1, 8] of the same compound?
A: 0 to 29%

Q: What about the pest or weed control at 70 g/ha [1, 9] of the same compound?
A: 0 to 29%

Q: What about the pest or weed control at 140 g/ha [1, 9] of the same compound?
A: 0 to 29%

Q: What about the pest or weed control at 70 g/ha [1, 10] of the same compound?
A: 0 to 29%

Q: And the pest or weed control at 140 g/ha [1, 10]?
A: 0 to 29%

Q: What about the pest or weed control at 70 g/ha [2, 11] of the same compound?
A: 75 to 84%

Q: And the pest or weed control at 140 g/ha [2, 11]?
A: 85 to 94%

Q: And the pest or weed control at 70 g/ha [2, 12]?
A: 0 to 29%

Q: What about the pest or weed control at 140 g/ha [2, 12] of the same compound?
A: 0 to 29%

Q: And the pest or weed control at 70 g/ha [2, 13]?
A: 0 to 29%

Q: What about the pest or weed control at 140 g/ha [2, 13] of the same compound?
A: 0 to 29%

Q: And the pest or weed control at 70 g/ha [2, 14]?
A: 0 to 29%

Q: And the pest or weed control at 140 g/ha [2, 14]?
A: 45 to 59%

Q: And the pest or weed control at 70 g/ha [2, 15]?
A: 0 to 29%

Q: What about the pest or weed control at 140 g/ha [2, 15] of the same compound?
A: 60 to 74%

Q: And the pest or weed control at 70 g/ha [2, 16]?
A: 45 to 59%

Q: And the pest or weed control at 140 g/ha [2, 16]?
A: 60 to 74%

Q: And the pest or weed control at 70 g/ha [2, 17]?
A: 0 to 29%

Q: And the pest or weed control at 140 g/ha [2, 17]?
A: 0 to 29%
